Laboratory results taken from PubChem BioAssay AID330 (DTP/NCI, 2004).
Where “and” joins values, the source holds several entries; their conditions need not be identical. Identical values can stand only once. Inconclusive results and toxic doses are left out.

System: P388 leukemia ip, CD2F1 mice, survival T/C
Experiment: NCI In Vivo Anticancer Drug Screen. Data for tumor model P388 Leukemia (intraperitoneal) in CD2F1 (CDF1) mice
Conditions: endpoint: median survival time, higher = longer survival
Procedure, shortened: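 Mice carrying the transplanted tumor received test compound or vehicle. Survival was recorded in each group, and the value is the treated-group measurement divided by that of the vehicle-treated control group.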

[1] = dose: 6.25 mg/kg/injection, schedule: Q01DX009 (ip), vehicle: saline with Tween-80
[2] = dose: 12.5 mg/kg/injection, schedule: Q01DX009 (ip), vehicle: saline with Tween-80
[3] = dose: 25.0 mg/kg/injection, schedule: Q01DX009 (ip), vehicle: saline with Tween-80
[4] = dose: 200.0 mg/kg/injection, schedule: Q01DX009 (ip), vehicle: saline with Tween-80
[5] = dose: 50.0 mg/kg/injection, schedule: Q01DX009 (ip), vehicle: Klucel (hydroxypropylcellulose) (HPC)
[6] = dose: 60.0 mg/kg/injection, schedule: Q01DX005 (ip), vehicle: saline with Tween-80
[7] = dose: 120.0 mg/kg/injection, schedule: Q01DX005 (ip), vehicle: saline with Tween-80
[8] = dose: 240.0 mg/kg/injection, schedule: Q01DX005 (ip), vehicle: saline with Tween-80
[9] = dose: 50.0 mg/kg/injection, schedule: Q01DX009 (ip), vehicle: saline with Tween-80
[10] = dose: 100.0 mg/kg/injection, schedule: Q01DX009 (ip), vehicle: saline with Tween-80
[11] = dose: 50.0 mg/kg/injection, schedule: Q01DX005 (ip), vehicle: Klucel (hydroxypropylcellulose) (HPC)
[12] = dose: 100.0 mg/kg/injection, schedule: Q01DX005 (ip), vehicle: Klucel (hydroxypropylcellulose) (HPC)
[13] = dose: 12.5 mg/kg/injection, schedule: Q01DX009 (ip), vehicle: Klucel (hydroxypropylcellulose) (HPC)
[14] = dose: 200.0 mg/kg/injection, schedule: Q01DX005 (ip), vehicle: Klucel (hydroxypropylcellulose) (HPC)
[15] = dose: 100.0 mg/kg/injection, schedule: Q04DX003 (ip), vehicle: saline

COc1ccc(C2CC(=O)N(CN3CCN(c4ccc(Cl)cc4)CC3)C(=O)C2)cc1
T/C [1]: 94 % of control
T/C [2]: 94 % of control
T/C [3]: 91 % of control
T/C [4]: 92 % of control

CC1CC(C)S(=O)CS1 (stereo not given)
T/C (dose: 100.0 mg/kg/injection, schedule: Q04DX002 (ip), vehicle: saline with Tween-80): 98 % of control
T/C (dose: 200.0 mg/kg/injection, schedule: Q04DX002 (ip), vehicle: saline with Tween-80): 100 % of control

COc1cc(OC)c2c(c1)OC(=O)C(C(C)=O)C2 (stereo not given)
T/C (dose: 50.0 mg/kg/injection, schedule: Q01DX005 (ip), vehicle: saline with Tween-80): 96 % of control
T/C (dose: 100.0 mg/kg/injection, schedule: Q01DX005 (ip), vehicle: saline with Tween-80): 112 % of control

N#[N+]c1ccc2c(S(=O)(=O)Nc3ccc(-c4ccc(NS(=O)(=O)c5cccc6c([O-])c([N+]#N)ccc56)cc4)cc3)cccc2c1[O-]
T/C [5]: 102 % of control
T/C (dose: 100.0 mg/kg/injection, schedule: Q01DX009 (ip), vehicle: Klucel (hydroxypropylcellulose) (HPC)): 99 % of control
T/C (dose: 200.0 mg/kg/injection, schedule: Q01DX009 (ip), vehicle: Klucel (hydroxypropylcellulose) (HPC)): 98 % of control

COC(=O)/C=C(\CCl)N=[N+]=[N-]
T/C [6]: 108 % of control
T/C [7]: 109 % of control
T/C [8]: 107 % of control

O=C(N/N=C/c1ccccc1F)c1ccncc1
T/C [9]: 98 % of control
T/C [10]: 97 % of control
T/C [4]: 104 % of control

N#CC(C(=O)C(N)=O)c1ccc(Cl)cc1Cl (stereo not given)
T/C [6]: 104 % of control
T/C [7]: 103 % of control
T/C [8]: 100 % of control

CCN(CC)CC(O)c1cc(-c2ccccc2)nc2ccc(OC)cc12 (stereo not given)
T/C [11]: 100 % of control
T/C [12]: 92 % of control

ClC(Cl)(Cl)C1=NCc2nnn(Cc3ccccc3)c2N1
T/C (dose: 6.25 mg/kg/injection, schedule: Q01DX009 (ip), vehicle: Klucel (hydroxypropylcellulose) (HPC)): 113 % of control
T/C [1]: 118 % of control
T/C [13]: 114 % of control
T/C [2]: 115 % of control and 117 % of control
T/C [3]: 105 % of control and 106 % of control
T/C [5]: 104 % of control
T/C [10]: 110 % of control
T/C [4]: 100 % of control and 113 % of control
T/C (dose: 400.0 mg/kg/injection, schedule: Q01DX009 (ip), vehicle: saline with Tween-80): 96 % of control

C[N+]1(Cc2csc(-c3ccc(Cl)cc3)n2)CCOCC1
T/C [13]: 100 % of control and 106 % of control
T/C (dose: 25.0 mg/kg/injection, schedule: Q01DX009 (ip), vehicle: Klucel (hydroxypropylcellulose) (HPC)): 113 % of control and 96 % of control
T/C [5]: 98 % of control and 108 % of control

COC(=O)C1OC(SCCN)C(O)C(O)C1O (stereo not given)
T/C (dose: 50.0 mg/kg/injection, schedule: Q01DX009 (ip), vehicle: water): 100 % of control
T/C (dose: 100.0 mg/kg/injection, schedule: Q01DX009 (ip), vehicle: water): 102 % of control
T/C (dose: 200.0 mg/kg/injection, schedule: Q01DX009 (ip), vehicle: water): 91 % of control

O=[N+]([O-])c1cccc(SNc2cccc(Cl)c2)c1
T/C [3]: 100 % of control
T/C (dose: 25.0 mg/kg/injection, schedule: Q04DX003 (ip), vehicle: saline with Tween-80): 90 % of control
T/C [9]: 95 % of control
T/C (dose: 50.0 mg/kg/injection, schedule: Q04DX003 (ip), vehicle: saline with Tween-80): 100 % of control
T/C [10]: 104 % of control
T/C (dose: 100.0 mg/kg/injection, schedule: Q04DX003 (ip), vehicle: saline with Tween-80): 86 % of control
T/C (dose: 200.0 mg/kg/injection, schedule: Q04DX003 (ip), vehicle: saline with Tween-80): 100 % of control

CN1C=C(c2ccccc2)C=C(c2ccccc2)C1S(=O)(=O)O (stereo not given)
T/C (dose: 12.5 mg/kg/injection, schedule: Q01DX005 (ip), vehicle: saline + Tween-80 + alcohol): 99 % of control
T/C (dose: 25.0 mg/kg/injection, schedule: Q01DX005 (ip), vehicle: saline + Tween-80 + alcohol): 96 % of control

CSC(=S)n1nc(-c2cccs2)c(N=Nc2ccc(Cl)cc2)c1C(F)(F)F
T/C [6]: 92 % of control
T/C [7]: 100 % of control
T/C [8]: 111 % of control

N#Cc1ncn(Cc2ccccc2)c1N
T/C (dose: 15.0 mg/kg/injection, schedule: Q01DX005 (ip), vehicle: saline with Tween-80): 95 % of control
T/C (dose: 30.0 mg/kg/injection, schedule: Q01DX005 (ip), vehicle: saline with Tween-80): 101 % of control
T/C [6]: 105 % of control and 109 % of control

COC(=O)CC1(C(=O)OC)c2ccc3ccccc3c2N(C#N)C1CCCBr (stereo not given)
T/C (dose: 100.0 mg/kg/injection, schedule: Q01DX001 (ip), vehicle: saline): 109 % of control
T/C (dose: 200.0 mg/kg/injection, schedule: Q01DX001 (ip), vehicle: saline): 107 % of control
T/C (dose: 400.0 mg/kg/injection, schedule: Q01DX001 (ip), vehicle: saline): 100 % of control

Nc1ccc2cc(Cl)[nH]c(=O)c2c1
T/C [11]: 100 % of control
T/C [12]: 94 % of control
T/C [14]: 97 % of control

CCCCC(CC)CS(=O)(=O)OCCCCOS(=O)(=O)CC(CC)CCCC (stereo not given)
T/C [11]: 101 % of control
T/C [12]: 105 % of control
T/C [14]: 108 % of control

O=C(Nc1ccc(C2=NCCN2)cc1)Nc1cccc(NC(=O)Nc2cccc(C3=NCCN3)c2)c1
T/C (dose: 0.75 mg/kg/injection, schedule: Q04DX003 (ip), vehicle: saline with Tween-80): 104 % of control
T/C (dose: 1.5 mg/kg/injection, schedule: Q04DX003 (ip), vehicle: saline with Tween-80): 118 % of control
T/C (dose: 8.0 mg/kg/injection, schedule: Q01DX009 (ip), vehicle: saline with Tween-80): 163 % of control
T/C (dose: 12.0 mg/kg/injection, schedule: Q01DX009 (ip), vehicle: saline with Tween-80): 254 % of control
T/C (dose: 12.5 mg/kg/injection, schedule: Q04DX003 (ip), vehicle: saline with Tween-80): 150 % of control
T/C (dose: 18.0 mg/kg/injection, schedule: Q01DX009 (ip), vehicle: saline with Tween-80): 272 % of control
T/C [15]: 104 % of control

CN1C2C=CC1c1c(C3=NC(C)(C)CO3)cccc12 (stereo not given)
T/C (dose: 50.0 mg/kg/injection, schedule: Q01DX005 (ip), vehicle: saline): 98 % of control
T/C (dose: 100.0 mg/kg/injection, schedule: Q01DX005 (ip), vehicle: saline): 103 % of control

Cc1ccnn1C(C(=O)c1ccccc1)c1ccccc1 (stereo not given)
T/C [9]: 108 % of control
T/C [10]: 105 % of control
T/C [4]: 105 % of control

COC(=O)c1cn[nH]c1CC(N)=O
T/C (dose: 60.0 mg/kg/injection, schedule: Q01DX005 (ip), vehicle: saline): 100 % of control
T/C (dose: 120.0 mg/kg/injection, schedule: Q01DX005 (ip), vehicle: saline): 103 % of control
T/C (dose: 240.0 mg/kg/injection, schedule: Q01DX005 (ip), vehicle: saline): 103 % of control

CNC(=O)OCc1c(COC(=O)NC)c(-c2ccc(N)cc2)n(C)c1C
T/C (dose: 6.25 mg/kg/injection, schedule: Q01DX009 (ip), vehicle: distilled water + Tween-80): 106 % of control and 92 % of control
T/C (dose: 12.5 mg/kg/injection, schedule: Q01DX009 (ip), vehicle: distilled water + Tween-80): 119 % of control and 98 % of control
T/C (dose: 25.0 mg/kg/injection, schedule: Q01DX009 (ip), vehicle: distilled water + Tween-80): 100 % of control and 123 % of control
T/C (dose: 50.0 mg/kg/injection, schedule: Q01DX009 (ip), vehicle: distilled water + Tween-80): 119 % of control

CN=C(c1ccc(NC(=O)c2cc(N)cc(C(=O)Nc3ccc(C(=NC)N(C)C)cc3)c2)cc1)N(C)C
T/C (dose: 6.25 mg/kg/injection, schedule: Q01DX005 (ip), vehicle: Klucel (hydroxypropylcellulose) (HPC)): 104 % of control
T/C (dose: 12.5 mg/kg/injection, schedule: Q01DX005 (ip), vehicle: Klucel (hydroxypropylcellulose) (HPC)): 104 % of control

NC1=NC2CC(N1)c1ccc(O)cc1O2 (stereo not given)
T/C (dose: 50.0 mg/kg/injection, schedule: Q01DX009 (ip), vehicle: saline): 109 % of control
T/C (dose: 100.0 mg/kg/injection, schedule: Q01DX009 (ip), vehicle: saline): 110 % of control

Cc1ccc(S(=O)(=O)/N=C2\C=CC=C\C2=C2\Sc3ccccc3N2C)cc1
T/C [15]: 102 % of control
T/C (dose: 200.0 mg/kg/injection, schedule: Q04DX003 (ip), vehicle: saline): 99 % of control
T/C (dose: 400.0 mg/kg/injection, schedule: Q04DX003 (ip), vehicle: saline): 95 % of control

CC[C@H](C)C(NC(=O)[C@H]1N=C(c2csc(C(O)Cc3ccccc3)n2)OC1C)C(=O)OC (stereo not given in full)
T/C [6]: 99 % of control
T/C [7]: 98 % of control
T/C [8]: 100 % of control
